Target: GLP-1 Receptor (Homo sapiens, UniProt P43220)
Experiment: GLP-1R agonist cAMP stimulation assay (HEK293/GLP1R/CRE-LUC cells, cAMP dynamic 2 Kit)
Type: cell-based
Details: HEK293/CRE-Luc cell line stably expressing the GLP-1 Receptor, 30 min at 37° C.
Procedure, shortened: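 HEK293 cells stably expressing human GLP-1R with CRE-luciferase, 1000 cells/well in DPBS with 0.5 mM IBMX and 0.1% BSA, treated with compound in 1/2-log serial dilution for 30 min at 37 °C. cAMP then detected by HTRF (cAMP-d2 plus anti-cAMP cryptate), 1 h at room temperature in the dark.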

Chain of GLP-1 Receptor (P43220 24-463, species assumed): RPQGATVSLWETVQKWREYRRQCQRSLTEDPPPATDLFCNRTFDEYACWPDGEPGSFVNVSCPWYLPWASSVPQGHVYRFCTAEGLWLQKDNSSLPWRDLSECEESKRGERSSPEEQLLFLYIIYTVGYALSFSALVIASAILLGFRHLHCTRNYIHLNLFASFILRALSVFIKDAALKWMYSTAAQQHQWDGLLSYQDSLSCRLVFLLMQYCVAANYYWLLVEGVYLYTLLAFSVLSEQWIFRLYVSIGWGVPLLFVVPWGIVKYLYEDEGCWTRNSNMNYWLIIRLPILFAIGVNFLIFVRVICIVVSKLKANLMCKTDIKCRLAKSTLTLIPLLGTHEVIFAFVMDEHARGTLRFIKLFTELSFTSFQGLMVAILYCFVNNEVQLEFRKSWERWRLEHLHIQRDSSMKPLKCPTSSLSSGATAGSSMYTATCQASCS

EC50 | Compound
14 pM | C[C@]1(c2ccc(Cl)cc2F)Oc2cccc(C3CCN(Cc4nc5cc(-c6nnc(C(F)(F)F)[nH]6)ncc5n4CC4(C#N)CC4)CC3)c2O1 [Compound 345a, 1-{[2-({4-[(2S)-2-(4-chloro-2-fluorophenyl)-2-methyl-2H-1,3-benzodioxol-4-yl]piperidin-1-yl}methyl)-6-[5-(trifluoromethyl)-4H-1,2,4-triazol-3-yl]-3H-imidazo[4,5-c]pyridin-3-yl]methyl}cyclopropane-1-carbonitrile]
2000 pM | CO[C@@H](C)Cn1c(CN2CCC(c3cccc4c3OC(C)(c3ccc(Cl)cn3)O4)CC2)nc2cc(-c3nnc(C(F)(F)F)[nH]3)ncc21 (stereo partly drawn) [Compound 445a, 5-chloro-2-{4-[1-({3-[(2S)-2-methoxypropyl]-6-[5-(trifluoromethyl)-4H-1,2,4-triazol-3-yl]-3H-imidazo[4,5-c]pyridin-2-yl}methyl)piperidin-4-yl]-2-methyl-2H-1,3-benzodioxol-2-yl}pyridine]
29 pM | Cc1nnc(-c2ccc3c(c2)nc(CN2CCC(c4cccc5c4O[C@@](C)(c4ccc(C#N)cc4F)O5)CC2)n3C[C@@H]2CCO2)[nH]1 [Compound 410a, 3-fluoro-4-[(2S)-2-methyl-4-(1-{[5-(5-methyl-4H-1,2,4-triazol-3-yl)-1-{[(2S)-oxetan-2-yl]methyl}-1H-1,3-benzodiazol-2-yl]methyl}piperidin-4-yl)-2H-1,3-benzodioxol-2-yl]benzonitrile]
26 pM | CC1(c2ccc(C#N)cc2Cl)Oc2cccc(C3CCN(Cc4nc5cc(-c6nnc(C(F)(F)F)[nH]6)ccc5n4C[C@@H]4CCO4)CC3)c2O1 (stereo partly drawn) [Compound 353a, 3-chloro-4-(2-methyl-4-{1-[(1-{[(2S)-oxetan-2-yl]methyl}-5-[5-(trifluoromethyl)-4H-1,2,4-triazol-3-yl]-1H-1,3-benzodiazol-2-yl)methyl]piperidin-4-yl}-2H-1,3-benzodioxol-2-yl)benzonitrile]
78 pM | N#Cc1ccc(COc2ccc(F)c(N3CCN(Cc4nc5cc(-c6nnc(C(F)(F)F)[nH]6)nnc5n4C[C@@H]4CCO4)CC3)n2)c(F)c1 [Compound 503a, 3-fluoro-4-{[(5-fluoro-6-{4-[(7-{[(2S)-oxetan-2-yl]methyl}-3-[5-(trifluoromethyl)-4H-1,2,4-triazol-3-yl]-7H-imidazo[4,5-c]pyridazin-6-yl)methyl]piperazin-1-yl}pyridin-2-yl)oxy]methyl}benzonitrile]
13 pM | Fc1cc(Cl)ccc1COc1cccc(N2CCN(Cc3nc4cc(-c5nnc(C(F)(F)F)[nH]5)cnc4n3C[C@@H]3CCO3)CC2)n1 [Compound 494a, 1-{6-[(4-chloro-2-fluorophenyl)methoxy]pyridin-2-yl}-4-[(3-{[(2S)-oxetan-2-yl]methyl}-6-[5-(trifluoromethyl)-4H-1,2,4-triazol-3-yl]-3H-imidazo[4,5-b]pyridin-2-yl)methyl]piperazine]
9.6 pM | N#Cc1ccc(COc2nc(C3CCN(Cc4nc5cc(-c6nnc(C(F)(F)F)[nH]6)ncc5n4C[C@@H]4CCO4)CC3)ccc2F)c(F)c1 [Compound 485a, 3-fluoro-4-{[(3-fluoro-6-{1-[(3-{[(2S)-oxetan-2-yl]methyl}-6-[5-(trifluoromethyl)-4H-1,2,4-triazol-3-yl]-3H-imidazo[4,5-c]pyridin-2-yl)methyl]piperidin-4-yl}pyridin-2-yl)oxy]methyl}benzonitrile]
3200 pM | O=C(NC1CC1)c1ccc2c(c1)nc(CN1CCC(c3cccc(OCc4ccc(Cl)cc4F)n3)CC1)n2C[C@@H]1CCO1 [Compound 396a, 2-[(4-{6-[(4-chloro-2-fluorophenyl)methoxy]pyridin-2-yl}piperidin-1-yl)methyl]-N-cyclopropyl-1-{[(2S)-oxetan-2-yl]methyl}-1H-1,3-benzodiazole-5-carboxamide]
33 pM | CO[C@H](C)Cn1c(CN2CCC(c3cccc4c3O[C@@](C)(c3ccc(C#N)cc3F)O4)CC2)nc2cc(-c3nnc(C(F)(F)F)[nH]3)ncc21 [Compound 442a, 3-fluoro-4-[(2S)-4-[1-({3-[(2R)-2-methoxypropyl]-6-[5-(trifluoromethyl)-4H-1,2,4-triazol-3-yl]-3H-imidazo[4,5-c]pyridin-2-yl}methyl)piperidin-4-yl]-2-methyl-2H-1,3-benzodioxol-2-yl]benzonitrile]
13 pM | C[C@]1(c2ccc(C#N)cc2F)Oc2cccc(C3CCN(Cc4nc5cc(-c6noc(=O)[nH]6)ncc5n4C[C@@H]4CCO4)CC3)c2O1 [Compound 433a, 3-fluoro-4-[(2S)-2-methyl-4-{1-[(3-{[(2S)-oxetan-2-yl]methyl}-6-(5-oxo-4,5-dihydro-1,2,4-oxadiazol-3-yl)-3H-imidazo[4,5-c]pyridin-2-yl)methyl]piperidin-4-yl}-2H-1,3-benzodioxol-2-yl]benzonitrile]

The remaining lines, values behind:

Compound | EC50
O=C(CC(F)(F)F)Nc1ccc2c(c1)nc(CN1CCC(c3cccc(OCc4ccc(Cl)cc4F)n3)CC1)n2C[C@@H]1CCO1 [Compound 150a, N-{2-[(4-{6-[(4-chloro-2-fluorophenyl)methoxy]pyridin-2-yl}piperidin-1-yl)methyl]-1-{[(2S)-oxetan-2-yl]methyl}-1H-1,3-benzodiazol-5-yl}-3,3,3-trifluoropropanamide] | 610 pM
CC1(c2ccc(Cl)cc2F)Oc2cccc(C3CCN(Cc4nc5cc(-c6n[nH]c(=O)s6)ccc5n4C[C@@H]4CCO4)CC3)c2O1 (stereo partly drawn) [Compound 221a, 5-[2-({4-[2-(4-chloro-2-fluorophenyl)-2-methyl-2H-1,3-benzodioxol-4-yl]piperidin-1-yl}methyl)-1-{[(2S)-oxetan-2-yl]methyl}-1H-1,3-benzodiazol-5-yl]-2,3-dihydro-1,3,4-thiadiazol-2-one] | 7400 pM
O=C(Nc1ccc2c(c1)nc(CN1CCC(c3cccc(OCc4ccc(Cl)cc4F)n3)CC1)n2C[C@@H]1CCO1)c1ccccc1 [Compound 166a, N-{2-[(4-{6-[(4-chloro-2-fluorophenyl)methoxy]pyridin-2-yl}piperidin-1-yl)methyl]-1-{[(2S)-oxetan-2-yl]methyl}-1H-1,3-benzodiazol-5-yl}benzamide] | 140 pM
CC1(c2ccc(Cl)cn2)Oc2cccc(C3CCN(Cc4nc5cc(-c6nnc(C7CC7)[nH]6)cnc5n4C[C@@H]4CCO4)CC3)c2O1 (stereo partly drawn) [Compound 268a, 5-chloro-2-[4-(1-{[6-(5-cyclopropyl-4H-1,2,4-triazol-3-yl)-3-{[(2S)-oxetan-2-yl]methyl}-3H-imidazo[4,5-b]pyridin-2-yl]methyl}piperidin-4-yl)-2-methyl-2H-1,3-benzodioxol-2-yl]pyridine] | 4200 pM
Cn1ccc(-c2ccc3c(c2)nc(CN2CCC(c4cccc(OCc5ccc(Cl)cc5F)n4)CC2)n3C[C@@H]2CCO2)n1 [Compound 124a, 2-[(4-{6-[(4-chloro-2-fluorophenyl)methoxy]pyridin-2-yl}piperidin-1-yl)methyl]-5-(1-methyl-1H-pyrazol-3-yl)-1-{[(2S)-oxetan-2-yl]methyl}-1H-1,3-benzodiazole] | 780 pM
CC1(c2ccc(C#N)cc2F)Oc2cccc(C3CCN(Cc4nc5cc(-c6nnc(C(F)(F)F)[nH]6)ccc5n4C[C@@H]4CCO4)CC3)c2O1 (stereo partly drawn) [Compound 261a, 3-fluoro-4-(2-methyl-4-{1-[(1-{[(2S)-oxetan-2-yl]methyl}-5-[5-(trifluoromethyl)-4H-1,2,4-triazol-3-yl]-1H-1,3-benzodiazol-2-yl)methyl]piperidin-4-yl}-2H-1,3-benzodioxol-2-yl)benzonitrile] | 18 pM
Cc1nnc(-c2cc3nc(CN4CCC(c5cccc6c5O[C@@](C)(c5ccc(Cl)cc5F)O6)CC4)n(C[C@@H]4CCO4)c3cn2)[nH]1 [Compound 289a, 4-[(2S)-2-(4-chloro-2-fluorophenyl)-2-methyl-2H-1,3-benzodioxol-4-yl]-1-{[6-(5-methyl-4H-1,2,4-triazol-3-yl)-3-{[(2S)-oxetan-2-yl]methyl}-3H-imidazo[4,5-c]pyridin-2-yl]methyl}piperidine] | 5.1 pM
Cc1cncc(C)c1C(=O)Nc1ccc2c(c1)nc(CN1CCC(c3cccc(OCc4ccc(Cl)cc4F)n3)CC1)n2C[C@@H]1CCO1 [Compound 191a, N-{2-[(4-{6-[(4-chloro-2-fluorophenyl)methoxy]pyridin-2-yl}piperidin-1-yl)methyl]-1-{[(2S)-oxetan-2-yl]methyl}-1H-1,3-benzodiazol-5-yl}-3,5-dimethylpyridine-4-carboxamide] | 8800 pM
CC1(c2ccc(Cl)cc2F)Oc2cccc(C3CCN(Cc4nc5cc(-c6nnc(C(F)(F)F)[nH]6)cnc5n4C[C@@H]4CCO4)CC3)c2O1 (single isomer, unassigned) [Compound 224c] | 14 pM
Fc1cc(Cl)ccc1COc1cccc(C2CCN(Cc3nc4cc(-c5nnn[nH]5)ccc4n3C[C@@H]3CCO3)CC2)n1 [Compound 125a, 2-[(4-{6-[(4-chloro-2-fluorophenyl)methoxy]pyridin-2-yl}piperidin-1-yl)methyl]-1-{[(2S)-oxetan-2-yl]methyl}-5-(1H-1,2,3,4-tetrazol-5-yl)-1H-1,3-benzodiazole] | 56 pM
CC1(c2ccc(Cl)cn2)Oc2cccc(C3CCN(Cc4nc5cc(-c6nnc(C7CC7)[nH]6)ccc5n4C[C@@H]4CCO4)CC3)c2O1 (stereo partly drawn) [Compound 270a, 2-({4-[2-(5-chloropyridin-2-yl)-2-methyl-2H-1,3-benzodioxol-4-yl]piperidin-1-yl}methyl)-5-(5-cyclopropyl-4H-1,2,4-triazol-3-yl)-1-{[(2S)-oxetan-2-yl]methyl}-1H-1,3-benzodiazole] | 860 pM
CC1(c2ccc(Cl)cc2F)Oc2cccc(C3CCN(Cc4nc5cc(-c6noc(=O)[nH]6)ccc5n4C[C@@H]4CCO4)CC3)c2O1 (single isomer, unassigned) [Compound 239c] | 550 pM
O=C(O)Cc1ccc2c(c1)nc(CN1CC=C(c3cccc(OCc4ccc(Cl)cc4F)n3)CC1)n2C[C@@H]1CCO1 [Compound 112a, (S)-2-(2-((6-((4-chloro-2-fluorobenzyl)oxy)-3′,6′-dihydro-[2,4′-bipyridin]-1′(2′H)-yl)methyl)-1-(oxetan-2-ylmethyl)-1H-benzo[d]imidazol-5-yl)acetic acid] | 6350 pM
